Experimental data: US20240391862A1, “(1,4,5-TRISUBSTITUTED-1H-PYRAZOL-3-YL)OXY-2-ALKOXY ALKYL ACIDS AND THEIR DERIVATIVES, THEIR SALTS AND THEIR USE AS HERBICIDAL AGENTS” (Bayer AKtiengesellschaft, priority 2021, published 2024)

Legend:
ZEAMX = assay: Post-emergence herbicidal effect and crop plant compatibility, greenhouse pot test; assay type: in vivo, Zea mays; settings: one-leaf stage, rated visually after about 3 weeks vs untreated controls
Outline: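 Greenhouse pot plants in sandy loam receive a one-leaf-stage spray at 20 to 320 g/ha. Activity is assessed visually around 3 weeks afterwards on a 0–100% scale, where 100% means the plants have died.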

ABUTH = assay: Post-emergence herbicidal effect, greenhouse pot test; assay type: in vivo, Abutilon theophrasti; settings: visual rating about 3 weeks after treatment
Outline: (§1)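 Sandy loam pots, greenhouse. One-leaf stage (2–3 wk after sowing) foliar spray; WP/EC in water + 0.5% additive, 600 l/ha; 20–320 g/ha. Visual score ~3 wk, 0–100% vs untreated.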

ALOMY = assay: as above; assay type: in vivo, Alopecurus myosuroides; settings: visual rating about 3 weeks after treatment
Outline: as §1

AMARE = assay: as above; assay type: in vivo, Amaranthus retroflexus; settings: visual rating about 3 weeks after treatment; for pest or weed control at 320 g/ha: Amaranthus retroflexus, 504 h, read-out: Post-emergence effect against AMARE
Outline: as §1

AVEFA = assay: as above; assay type: in vivo, Avena fatua; settings: visual rating about 3 weeks after treatment
Outline: as §1

DIGSA = assay: as above; assay type: in vivo, Digitaria sanguinalis; settings: visual rating about 3 weeks after treatment; for pest or weed control at 320 g/ha / Post-emergence effect against DIGSA: 320 g/ha
Outline: as §1

ECHCG = assay: as above; assay type: in vivo, Echinochloa crus-galli; settings: for pest or weed control at 20 g/ha / pest or weed control at 80 g/ha / pest or weed control at 320 g/ha: Echinochloa crus-galli, 504 h; for pest or weed control at 20 g/ha: read-out: Post-emergence effect against ECHCG; for pest or weed control at 80 g/ha / pest or weed control at 320 g/ha: read-out: Post-emergence effect against ECHCG in %
Outline: as §1

LOLRI = assay: as above; assay type: in vivo, Lolium rigidum; settings: for pest or weed control at 320 g/ha: Lolium rigidum, 504 h, read-out: Post-emergence effect against LOLRI in %
Outline: as §1

MATIN = assay: as above; assay type: in vivo, Tripleurospermum inodorum
Outline: as §1

PHBPU = assay: as above; assay type: in vivo, Ipomoea purpurea; settings: for pest or weed control at 80 g/ha / pest or weed control at 320 g/ha: Ipomoea purpurea, 504 h, read-out: Post-emergence effect against PHBPU in %
Outline: as §1

POLCO = assay: as above; assay type: in vivo, Fallopia convolvulus
Outline: as §1

SETVI = assay: as above; assay type: in vivo, Setaria viridis
Outline: as §1

VERPE = assay: as above; assay type: in vivo, Veronica persica
Outline: as §1

VIOTR = assay: as above; assay type: in vivo, Viola tricolor; settings: for pest or weed control at 80 g/ha / pest or weed control at 320 g/ha: Viola tricolor, 504 h, read-out: Post-emergence effect against VIOTR in %
Outline: as §1

KCHSC = assay: as above; assay type: in vivo; settings: for pest or weed control at 80 g/ha / pest or weed control at 320 g/ha / pest or weed control at 20 g/ha: 504 h, read-out: Post-emergence effect against KCHSC in %
Outline: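 Visual rating of activity against untreated plants (100% = plants died, 0% = no effect), done about 3 weeks after treatment. Compounds applied at 20–320 g/ha as aqueous spray (600 l/ha, 0.5% additive) from WP or EC formulations onto one-leaf-stage plants grown in sandy loam under greenhouse conditions.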

[1] = Abutilon theophrasti, 504 h, 80 g/ha, read-out: Post-emergence effect against ABUTH
[2] = Abutilon theophrasti, 504 h, 320 g/ha, read-out: Post-emergence effect against ABUTH
[3] = Alopecurus myosuroides, 504 h, 320 g/ha, read-out: Post-emergence effect against ALOMY
[4] = Avena fatua, 504 h, 320 g/ha, read-out: Post-emergence effect against AVEFA
[5] = Digitaria sanguinalis, 504 h, read-out: Post-emergence effect against DIGSA
[6] = 20 g/ha, visual rating about 3 weeks after treatment
[7] = Tripleurospermum inodorum, 504 h, 320 g/ha, read-out: Post-emergence effect against MATIN in %
[8] = Fallopia convolvulus, 504 h, 320 g/ha, read-out: Post-emergence effect against POLCO in %
[9] = Setaria viridis, 504 h, 80 g/ha, read-out: Post-emergence effect against SETVI in %
[10] = Setaria viridis, 504 h, 320 g/ha, read-out: Post-emergence effect against SETVI in %
[11] = Veronica persica, 504 h, 80 g/ha, read-out: Post-emergence effect against VERPE in %
[12] = Veronica persica, 504 h, 320 g/ha, read-out: Post-emergence effect against VERPE in %

COC(Oc1nn(-c2ncccc2F)c(-c2cncc(F)c2)c1C1CC1)C(=O)O (centres unmarked) [Example I-68]
90%: pest or weed control at 320 g/ha (ABUTH; [2]) | pest or weed control at 80 g/ha (ALOMY; Alopecurus myosuroides, 504 h, 80 g/ha, read-out: Post-emergence effect against ALOMY) | pest or weed control at 320 g/ha (ALOMY; [3]) | pest or weed control at 80 g/ha (AVEFA; Avena fatua, 504 h, 80 g/ha, read-out: Post-emergence effect against AVEFA) | pest or weed control at 320 g/ha (AVEFA; [4]) | pest or weed control at 320 g/ha (DIGSA; [5]) | pest or weed control at 80 g/ha (ECHCG; 80 g/ha) | pest or weed control at 320 g/ha (ECHCG; 320 g/ha) | pest or weed control at 320 g/ha (LOLRI; 320 g/ha) | pest or weed control at 320 g/ha (MATIN; [7]) | pest or weed control at 80 g/ha (PHBPU; 80 g/ha) | pest or weed control at 320 g/ha (PHBPU; 320 g/ha) | pest or weed control at 80 g/ha (SETVI; [9]) | pest or weed control at 320 g/ha (SETVI; [10]) | pest or weed control at 80 g/ha (VERPE; [11]) | pest or weed control at 320 g/ha (VERPE; [12]) | pest or weed control at 80 g/ha (VIOTR; 80 g/ha) | pest or weed control at 320 g/ha (VIOTR; 320 g/ha) | Post-emergence effect against KCHSC in % (KCHSC; 20 g/ha) | pest or weed control at 80 g/ha (KCHSC; 80 g/ha) | pest or weed control at 320 g/ha (KCHSC; 320 g/ha)
80%: pest or weed control at 80 g/ha (ABUTH; [1]) | pest or weed control at 320 g/ha (AMARE; 320 g/ha) | pest or weed control at 20 g/ha (ECHCG; [6]) | pest or weed control at 80 g/ha (MATIN; Tripleurospermum inodorum, 504 h, 80 g/ha, read-out: Post-emergence effect against MATIN in %) | pest or weed control at 80 g/ha (POLCO; Fallopia convolvulus, 504 h, 80 g/ha, read-out: Post-emergence effect against POLCO in %) | pest or weed control at 320 g/ha (POLCO; [8])
0%: plant injury at 20 g/ha (ZEAMX; Zea mays, 504 h, 20 g/ha, read-out: Post-emergence effect at 20 g/ha against ZEAMX in %)

COC(Oc1nn(-c2ncccc2F)c(-c2ccc(F)nc2)c1C1CC1)C(=O)O (centres unmarked) [Example I-90]
90%: Post-emergence effect against ABUTH (ABUTH; 320 g/ha) | Post-emergence effect against ALOMY (ALOMY; 320 g/ha) | Post-emergence effect against AVEFA (AVEFA; 320 g/ha) | Post-emergence effect against ECHCG in % (ECHCG; 80 g/ha) | Post-emergence effect against ECHCG in % (ECHCG; 320 g/ha) | Post-emergence effect against LOLRI in % (LOLRI; 320 g/ha) | Post-emergence effect against PHBPU in % (PHBPU; 320 g/ha) | Post-emergence effect against SETVI in % (SETVI; 320 g/ha) | Post-emergence effect against VIOTR in % (VIOTR; 320 g/ha) | Post-emergence effect against KCHSC in % (KCHSC; 320 g/ha) | pest or weed control at 80 g/ha (KCHSC; 80 g/ha)
80%: pest or weed control at 320 g/ha (AMARE; 320 g/ha) | Post-emergence effect against DIGSA (DIGSA) | Post-emergence effect against POLCO in % (POLCO; 320 g/ha) | Post-emergence effect against VERPE in % (VERPE; 320 g/ha) | pest or weed control at 20 g/ha (KCHSC; 20 g/ha)
0%: Post-emergence effect at 20 g/ha against ZEAMX in % (ZEAMX; 20 g/ha) | Post-emergence effect at 80 g/ha against ZEAMX in % (ZEAMX; 80 g/ha) | Post-emergence effect at 320 g/ha against ZEAMX in % (ZEAMX; 320 g/ha)

CCOC(=O)C(OCC)Oc1nn(-c2ccccc2F)c(-c2ccc(F)nc2)c1Cl (centres unmarked) [Example I-50]
80%: pest or weed control at 80 g/ha (ABUTH; [1]) | pest or weed control at 320 g/ha (ALOMY; [3]) | pest or weed control at 320 g/ha (AMARE; 320 g/ha) | pest or weed control at 320 g/ha (MATIN; [7]) | pest or weed control at 320 g/ha (POLCO; [8]) | pest or weed control at 80 g/ha (VIOTR; 80 g/ha) | pest or weed control at 320 g/ha (KCHSC; 320 g/ha)
90%: pest or weed control at 320 g/ha (ABUTH; [2]) | pest or weed control at 320 g/ha (AVEFA; [4]) | pest or weed control at 320 g/ha (DIGSA; [5]) | pest or weed control at 20 g/ha (ECHCG; [6]) | pest or weed control at 80 g/ha (ECHCG; 80 g/ha) | pest or weed control at 320 g/ha (ECHCG; 320 g/ha) | pest or weed control at 320 g/ha (LOLRI; 320 g/ha) | pest or weed control at 80 g/ha (PHBPU; 80 g/ha) | pest or weed control at 320 g/ha (PHBPU; 320 g/ha) | pest or weed control at 80 g/ha (SETVI; [9]) | pest or weed control at 320 g/ha (SETVI; [10]) | pest or weed control at 80 g/ha (VERPE; [11]) | pest or weed control at 320 g/ha (VERPE; [12]) | pest or weed control at 320 g/ha (VIOTR; 320 g/ha)

COC(=O)C(OC)Oc1nn(-c2ncccc2F)c(-c2cncc(F)c2)c1C1CC1 (centres unmarked) [Example I-87]
90%: Post-emergence effect against ABUTH (ABUTH; 80 g/ha) | Post-emergence effect against ABUTH (ABUTH; 320 g/ha) | pest or weed control at 20 g/ha (ABUTH; Abutilon theophrasti, 504 h, 20 g/ha, read-out: Post-emergence effect against ABUTH) | Post-emergence effect against ALOMY (ALOMY; 80 g/ha) | Post-emergence effect against ALOMY (ALOMY; 320 g/ha) | Post-emergence effect against AMARE (AMARE; 320 g/ha) | Post-emergence effect against AVEFA (AVEFA; 80 g/ha) | Post-emergence effect against AVEFA (AVEFA; 320 g/ha) | Post-emergence effect against DIGSA (DIGSA) | Post-emergence effect against ECHCG (ECHCG; [6]) | Post-emergence effect against ECHCG in % (ECHCG; 80 g/ha) | Post-emergence effect against ECHCG in % (ECHCG; 320 g/ha) | Post-emergence effect against LOLRI in % (LOLRI; 80 g/ha) | Post-emergence effect against LOLRI in % (LOLRI; 320 g/ha) | Post-emergence effect against PHBPU in % (PHBPU; 20 g/ha) | Post-emergence effect against PHBPU in % (PHBPU; 80 g/ha) | Post-emergence effect against PHBPU in % (PHBPU; 320 g/ha) | Post-emergence effect against POLCO in % (POLCO; 80 g/ha) | Post-emergence effect against POLCO in % (POLCO; 320 g/ha) | Post-emergence effect against SETVI in % (SETVI; 80 g/ha) | Post-emergence effect against SETVI in % (SETVI; 320 g/ha) | pest or weed control at 20 g/ha (SETVI; Setaria viridis, 504 h, 20 g/ha, read-out: Post-emergence effect against SETVI in %) | Post-emergence effect against VERPE in % (VERPE; 80 g/ha) | Post-emergence effect against VERPE in % (VERPE; 320 g/ha) | Post-emergence effect against VIOTR in % (VIOTR; 20 g/ha) | Post-emergence effect against VIOTR in % (VIOTR; 80 g/ha) | Post-emergence effect against VIOTR in % (VIOTR; 320 g/ha) | Post-emergence effect against KCHSC in % (KCHSC; 80 g/ha) | Post-emergence effect against KCHSC in % (KCHSC; 320 g/ha) | pest or weed control at 20 g/ha (KCHSC; 20 g/ha)
80%: Post-emergence effect against AMARE (AMARE; 80 g/ha) | pest or weed control at 80 g/ha (DIGSA; Digitaria sanguinalis, 504 h, 80 g/ha, read-out: Post-emergence effect against DIGSA) | Post-emergence effect against MATIN in % (MATIN; 80 g/ha) | Post-emergence effect against MATIN in % (MATIN; 320 g/ha) | Post-emergence effect against POLCO in % (POLCO; 20 g/ha) | pest or weed control at 20 g/ha (VERPE; Veronica persica, 504 h, 20 g/ha, read-out: Post-emergence effect against VERPE in %)
